Data set [1] deals with T1, human TLR7 (Homo sapiens, UniProt Q9NYK1).
T1 construct: host or cells: HEK293 (HEK-Blue hTLR7)
T1 sequence (Q9NYK1 27-1049): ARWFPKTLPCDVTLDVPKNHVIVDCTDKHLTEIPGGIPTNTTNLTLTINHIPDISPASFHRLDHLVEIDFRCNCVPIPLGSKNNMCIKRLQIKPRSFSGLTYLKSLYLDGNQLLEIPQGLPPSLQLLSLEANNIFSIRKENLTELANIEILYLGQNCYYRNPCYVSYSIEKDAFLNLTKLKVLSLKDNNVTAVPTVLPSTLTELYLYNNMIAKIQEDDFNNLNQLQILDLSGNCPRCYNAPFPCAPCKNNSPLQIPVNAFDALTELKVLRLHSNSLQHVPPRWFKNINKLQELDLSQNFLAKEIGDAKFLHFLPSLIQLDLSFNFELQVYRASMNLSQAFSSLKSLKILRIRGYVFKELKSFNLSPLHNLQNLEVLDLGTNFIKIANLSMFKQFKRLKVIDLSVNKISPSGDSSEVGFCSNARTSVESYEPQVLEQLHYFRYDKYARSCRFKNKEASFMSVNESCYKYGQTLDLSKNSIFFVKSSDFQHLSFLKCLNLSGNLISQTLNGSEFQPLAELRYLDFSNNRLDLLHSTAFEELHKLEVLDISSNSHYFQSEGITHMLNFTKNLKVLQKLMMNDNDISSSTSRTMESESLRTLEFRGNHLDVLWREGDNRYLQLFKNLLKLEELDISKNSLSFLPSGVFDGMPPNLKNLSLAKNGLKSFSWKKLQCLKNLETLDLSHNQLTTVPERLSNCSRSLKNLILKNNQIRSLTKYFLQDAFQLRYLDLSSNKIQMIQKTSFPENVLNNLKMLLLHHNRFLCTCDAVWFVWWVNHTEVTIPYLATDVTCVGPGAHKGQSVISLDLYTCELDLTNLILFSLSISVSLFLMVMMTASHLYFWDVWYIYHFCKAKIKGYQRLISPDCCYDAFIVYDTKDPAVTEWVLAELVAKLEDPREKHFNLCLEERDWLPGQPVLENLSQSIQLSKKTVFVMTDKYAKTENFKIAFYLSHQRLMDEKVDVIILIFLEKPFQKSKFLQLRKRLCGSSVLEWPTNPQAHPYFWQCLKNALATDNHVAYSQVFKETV
Put plainly: HEK293-Blue-hTLR-7 cells assay (SEAP reporter, R848 stimulation). It counts as cell-based. As to conditions: HEK293-Blue-hTLR7 cells, R848, 20 hrs; read-out: HEK/hTLR7 IC50. In short, it runs like this:
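HEK293-Blue-hTLR7 cells (NF-κB/AP-1-driven SEAP reporter) were stimulated with R848 alongside serially diluted compound at 1% final DMSO for 20 h at 37 °C. Supernatant SEAP was then developed with QUANTI-Blue for 2 h at 37 °C and absorbance read at 620–655 nm; antagonism is measured as reduced reporter signal.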

Data set [2] concerns the target T2, CYP2D6 (Homo sapiens, UniProt P10635).
T2 construct: tissue BD-Gentest 452117; host or cells: human liver microsomes
As to the kind of experiment: CYP inhibition assay in human liver microsome, CYP2D6. As to conditions: human, human liver microsomes, probe dextromethorphan 5 μM, substrate dextromethorphan 5 μM, second value of 2C9/2D6/3A4. It counts as in vitro ADME. Here is the method:
(§1) This is a high throughput screening assay used for assessment of reversible inhibition of CYP2C9, CYP2D6, and CYP3A4 activity of test compounds in human liver microsome (HLM) in early discovery stage.
(§2) 10 mM DMSO stock solutions of test compounds were diluted in DMSO to generate 2 mM intermediate stock solution. 250 nL, of intermediate stock solution were transferred in duplicate into 3 separate 384 well microtitre plates (assay-ready plates). A mixture of HLM and each substrate was made up. 45 μL of HLM substrate mix was then transferred to each well of an assay ready plate and mixed. The negative (solvent) and positive controls (standard inhibitor for each CYP) were included in each assay ready plate. The assay ready plate was warmed to 37° C. in an incubator over 10 minutes. 5 μL pre-warmed NADPH regenerating system was added to each incubation well to start the reaction. Final incubation volume was 50 μL. The assay plate then was placed back in the 37° C. incubator. After incubation (10 minutes for CYP2D6) for 5 minutes, incubates were quenched by addition of 50 μL 100% acetonitrile containing internal standards (400 ng/mL 13C6-4′-OH-Diclofenac, 20 ng/mL D3-Dextrorphan and 20 ng/mL D4-1′OH-Midazolam). The supernatants were collected for RapidFire/MS/MS analysis.
(§3) RapidFire online solid phase extraction/sample injection system (Agilent) coupled with API4000 triple quadrupole mass spectrometer (AB Sciex) were used for sample analysis. The mobile phase composed of acetonitrile and water supplemented with 0.1% formic acid. A C4 solid phase extraction cartridge is used for sample separation. MS detection is achieved in positive ion MRM mode.
(§4) Peak areas for substrate, metabolite and internal standard are determined using the RapidFire integrator software (version 3.6.12009.12296). Peak area ratios (PAR) of metabolite and internal standard (stable-labelled metabolite) are then calculated. The measurement window for each experiment is then defined:
(§5) PAR (0% activity)=average PAR for all incubations containing concentrated inhibitor; Par (100% activity)=average PAR for all incubations containing no inhibitor (DMSO controls); % Activity (test inhibitor)=[PAR (test inhibitor)−PAR (0% activity)]/[PAR (100% activity)−PAR (0% activity)]; % Inhibition (test inhibitor)=100-% Activity (test inhibitor).
For orientation: Microsomes from liver hold many membrane-bound enzymes, among them those of drug oxidation.

Data set [3] addresses T3, CYP3A4 (Homo sapiens, UniProt P08684).
T3 construct: tissue BD-Gentest 452117; host or cells: human liver microsomes
Put plainly: CYP inhibition assay in human liver microsome, CYP3A4. It counts as in vitro ADME. As to conditions: human, human liver microsomes, probe midazolam 5 μM, substrate midazolam 5 μM, third value of 2C9/2D6/3A4. The procedure: as §1, §2, §3, §4, §5

T2 sequence (P10635 whole entry): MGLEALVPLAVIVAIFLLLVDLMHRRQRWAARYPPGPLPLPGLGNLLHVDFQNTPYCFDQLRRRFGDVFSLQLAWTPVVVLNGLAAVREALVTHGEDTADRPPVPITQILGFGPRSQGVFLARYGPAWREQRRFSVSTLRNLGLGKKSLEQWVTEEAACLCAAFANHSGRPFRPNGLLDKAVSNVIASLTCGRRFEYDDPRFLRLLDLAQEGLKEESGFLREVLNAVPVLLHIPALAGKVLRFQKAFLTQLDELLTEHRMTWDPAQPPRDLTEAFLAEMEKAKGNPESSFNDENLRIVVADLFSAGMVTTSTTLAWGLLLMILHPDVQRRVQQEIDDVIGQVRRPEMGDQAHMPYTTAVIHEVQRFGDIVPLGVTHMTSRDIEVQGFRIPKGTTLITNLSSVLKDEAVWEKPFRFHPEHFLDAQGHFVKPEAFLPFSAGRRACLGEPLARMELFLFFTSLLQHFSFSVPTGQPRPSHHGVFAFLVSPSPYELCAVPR
T3 sequence (P08684 whole entry): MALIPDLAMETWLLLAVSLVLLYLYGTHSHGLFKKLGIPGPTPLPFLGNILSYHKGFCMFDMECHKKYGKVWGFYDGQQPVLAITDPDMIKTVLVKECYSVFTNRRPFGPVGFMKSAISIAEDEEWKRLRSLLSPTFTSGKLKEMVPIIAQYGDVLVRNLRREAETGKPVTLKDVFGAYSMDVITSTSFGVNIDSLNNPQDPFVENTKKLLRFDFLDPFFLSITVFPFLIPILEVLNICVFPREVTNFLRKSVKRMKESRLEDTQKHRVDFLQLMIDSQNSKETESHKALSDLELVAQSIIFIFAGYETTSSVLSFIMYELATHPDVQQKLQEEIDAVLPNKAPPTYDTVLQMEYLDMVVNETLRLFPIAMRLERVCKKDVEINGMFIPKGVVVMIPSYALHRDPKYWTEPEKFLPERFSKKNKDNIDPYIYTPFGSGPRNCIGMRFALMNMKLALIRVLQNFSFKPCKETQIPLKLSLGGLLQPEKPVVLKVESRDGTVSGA

For orientation: inhibition means the drop in the measured response relative to a control, in per cent. On to `Cc1cc(N2CCNCC2)nc(N2CCN(C[C@H]3CN(c4ccc(C#N)c5nccnc45)C[C@@H](C)O3)CC2)n1` [Example 114, 8-[(2R,6S)-2-methyl-6-[[4-(4-methyl-6-piperazin-1-yl-pyrimidin-2-yl)piperazin-1-yl]methyl]morpholin-4-yl]quinoxaline-5-carbonitrile], for which the IC50 in data set [1] came out at 3 nM. For the same compound, the inhibition at 10 min, 10 µM in data set [2] came out at 32%. Further, the inhibition at 5 min, 10 µM in data set [3] amounted to 16%.

As for `Cc1cc(N2CCN(C[C@H]3CN(c4ccc(C#N)c5nccnc45)C[C@@H](C)O3)CC2)nc(N2CC(N)C2)n1` [Example 112, 8-[(2S,6R)-2-[[4-[2-(3-aminoazetidin-1-yl)-6-methyl-pyrimidin-4-yl]piperazin-1-yl]methyl]-6-methyl-morpholin-4-yl]quinoxaline-5-carbonitrile], in data set [1], the IC50 is 4 nM. In addition, the inhibition at 10 min, 10 µM in data set [2] is -2%. Moreover, the inhibition at 5 min, 10 µM in data set [3] is -5%.

Regarding `[2H]c1ccc2c(N3C[C@H](CN4CCN(c5nc(C)cc(N6C[C@H](OC)[C@@H](N)C6)n5)CC4)O[C@H](C)C3)ccc(C#N)c2n1` [Example 134, 5-[(2S,6R)-2-[[4-[4-[(3S,4S)-3-amino-4-methoxy-pyrrolidin-1-yl]-6-methyl-pyrimidin-2-yl]piperazin-1-yl]methyl]-6-methyl-morpholin-4-yl]-2-deuterio-quinoline-8-carbonitrile], the IC50 in data set [1] worked out at 25 nM. In data set [2], the inhibition at 10 min, 10 µM was -4%. In addition, the inhibition at 5 min, 10 µM in data set [3] was 47.5%.

With `C[C@@H]1CN(c2ccc(C#N)c3ncccc23)C[C@H](CN2CCC(c3cccc(C4CCNCC4)c3)CC2)O1` [Example 2, 5-[(2R,6S)-2-methyl-6-[[4-[3-(4-piperidyl)phenyl]-1-piperidyl]methyl]morpholin-4-yl]quinoline-8-carbonitrile], the IC50 in data set [1] came to 93 nM. Also, the inhibition at 10 min, 10 µM in data set [2] is 20%. In addition, in data set [3], the inhibition at 5 min, 10 µM stood at 18%.

On to `[2H]c1ccc2c(N3C[C@H](CN4CCN(c5ccc(N6CC7(CNCCO7)C6)nc5)CC4)O[C@H](C)C3)ccc(C#N)c2n1` [Example 152, 2-deuterio-5-[(2R,6S)-2-methyl-6-[[4-[6-(5-oxa-2,8-diazaspiro[3.5]nonan-2-yl)-3-pyridyl]piperazin-1-yl]methyl]morpholin-4-yl]quinoline-8-carbonitrile], for which, in data set [1], the IC50 was determined as 15 nM. Moreover, in data set [2], the inhibition at 10 min, 10 µM stood at 12.5%. In addition, the inhibition at 5 min, 10 µM in data set [3] turned out to be 35%.

For the compound `C[C@@H]1CN(c2ccc(C#N)c3nccnc23)C[C@H](CN2CCN(c3ccnc(N4C[C@@H](N)[C@@H](F)C4)n3)CC2)O1` [Example 108, 8-[(2S,6R)-2-[[4-[2-[(3R,4S)-3-amino-4-fluoro-pyrrolidin-1-yl]pyrimidin-4-yl]piperazin-1-yl]methyl]-6-methyl-morpholin-4-yl]quinoxaline-5-carbonitrile], the IC50 in data set [1] turned out to be 5 nM.

On to `Cc1ccc(N2C[C@H](CN3CCN(c4ccnc(N5C[C@H]6NCCO[C@@H]6C5)n4)CC3)O[C@H](C)C2)c2nccnc12` [Example 129, (4aR,7aR)-6-[4-[4-[[(2S,6R)-6-methyl-4-(8-methylquinoxalin-5-yl)morpholin-2-yl]methyl]piperazin-1-yl]pyrimidin-2-yl]-3,4,4a,5,7,7a-hexahydro-2H-pyrrolo[3,4-b][1,4]oxazine], for which the IC50 in data set [1] is 20 nM.

Take `[2H]c1ccc2c(N3C[C@H](CN4CCN(c5ncc(N6C[C@@H](N)[C@H](OC)C6)cc5C)CC4)O[C@H](C)C3)ccc(C#N)c2n1` [Example 142, 5-[(2S,6R)-2-[[4-[5-[(3R,4R)-3-amino-4-methoxy-pyrrolidin-1-yl]-3-methyl-2-pyridyl]piperazin-1-yl]methyl]-6-methyl-morpholin-4-yl]-2-deuterio-quinoline-8-carbonitrile]: the IC50 in data set [1] came to 20 nM.

For `[2H]c1ccc2c(N3C[C@H](CN4CCN(c5nc(OC)cc(N6CC(C)(N)C6)n5)CC4)O[C@H](C)C3)ccc(C#N)c2n1` [Example 131, 5-[(2S,6R)-2-[[4-[4-(3-amino-3-methyl-azetidin-1-yl)-6-methoxy-pyrimidin-2-yl]piperazin-1-yl]methyl]-6-methyl-morpholin-4-yl]-2-deuterio-quinoline-8-carbonitrile], in data set [1], the IC50 is 32 nM.

For `C[C@@H]1CN(c2ccc(C#N)c3nccnc23)C[C@H](CN2CCN(c3nccc(N4CC(N)C4)n3)CC2)O1` [Example 118, 8-[(2S,6R)-2-[[4-[4-(3-aminoazetidin-1-yl)pyrimidin-2-yl]piperazin-1-yl]methyl]-6-methyl-morpholin-4-yl]quinoxaline-5-carbonitrile], the IC50 in data set [1] turned out to be 4 nM.

Regarding `C[C@@H]1CN(c2ccc(C#N)c3ncccc23)C[C@H](CN2CCN(c3ccnc(N4C[C@H]5NCCO[C@@H]5C4)n3)CC2)O1` [Example 103, 5-[(2S,6R)-2-[[4-[2-[(4aR,7aR)-3,4,4a,5,7,7a-hexahydro-2H-pyrrolo[3,4-b][1,4]oxazin-6-yl]pyrimidin-4-yl]piperazin-1-yl]methyl]-6-methyl-morpholin-4-yl]quinoline-8-carbonitrile], the IC50 in data set [1] worked out at 10 nM.

As to `[2H]c1ccc2c(N3C[C@H](CN4CCN(c5ccc(N6CC(C)(N)C6)c(C)n5)CC4)O[C@H](C)C3)ccc(C#N)c2n1` [Example 147, 5-[(2S,6R)-2-[[4-[5-(3-amino-3-methyl-azetidin-1-yl)-6-methyl-2-pyridyl]piperazin-1-yl]methyl]-6-methyl-morpholin-4-yl]-2-deuterio-quinoline-8-carbonitrile], in data set [1], the IC50 was found to be 53 nM.

With `COC1CN(c2nccc(N3CCN(C[C@H]4CN(c5ccc(C#N)c6ncccc56)C[C@@H](C)O4)CC3)n2)CC1N` (stereo in doubt) [Example 93, 5-[(2S,6R)-2-[[4-[2-[(3R,4S)-3-amino-4-methoxy-pyrrolidin-1-yl]pyrimidin-4-yl]piperazin-1-yl]methyl]-6-methyl-morpholin-4-yl]quinoline-8-carbonitrile], the IC50 in data set [1] was found to be 12 nM.

As for `Cc1ccc(N2C[C@H](CN3CCN(c4ccnc(N5CC6(CNCCO6)C5)n4)CC3)O[C@H](C)C2)c2nccnc12` [Example 126, 2-[4-[4-[[(2S,6R)-6-methyl-4-(8-methylquinoxalin-5-yl)morpholin-2-yl]methyl]piperazin-1-yl]pyrimidin-2-yl]-5-oxa-2,8-diazaspiro[3.5]nonane], the IC50 in data set [1] was 21 nM.

(Values after patent US20210395239A1 (Hoffmann-La Roche Inc., priority 2018, published 2021).)
